Patent US20220315574A1, “Beta-Arrestin-Modulating Compounds and Methods of Using Same” (Duke University, priority 2019, published 2022)
Where a name gives a salt, the structure may show the parent alone.

Key:
V2R = test: BRET based receptor internalization assay; assay type: cell-based; details: V2R-expressing cells stimulated with AVP
Description: BRET-based assays were performed to measure receptor internalization using two complementary bystander BRET-formats. First, the association of the receptor (β2V2R-RlucII or V2R-RlucII, BRET donor) with the early endosome (2×FYVE-mVenus, BRET acceptor) was directly measured following agonist stimulation as described previously (Smith, J. S. et al. C-X-C Motif Chemokine Receptor 3 Splice Variants Differentially Activate Beta-Arrestins to Regulate Downstream Signaling Pathways. Mol Pharmacol 92, 136-150, doi:10.1124/mol.117.108522 (2017)). Second, receptor internalization following agonist stimulation was determined by measuring BRET signal from labeled receptor (β2V2R-RlucII or V2R-RlucII, BRET donor) and plasma membrane component (myr-palm-mVenus, BRET acceptor). Cells were transfected with 2.5 μg V2R-RlucII and 10 μg 2×FYVE-mVenus or 2 μg of myr-palm-mVenus using FuGENE HD (Promega, Madison, Wis.) in an individual 10 cm dish. ˜24 hours post-transfection, cells were seeded in white 96-well clear-bottomed plates at a density of 75,000 cells per well. The following day cells were washed and the media was changed to Hanks' Balanced Salt Solution (HBSS) buffer supplemented with 10 mM HEPES for 1 hours at 37° C. Cells were pretreated with βarr modulating compounds (50 μM) or vehicle, then incubated for 30 min at 37° C. Cells were stimulated with increasing doses of agonist isoproterenol or arginine vasopressin (GenScript). Coelenterazine-h was added to the cells 5 min prior to BRET measurements to a final concentration of 5 μM. BRET measurements were performed using the Synergy2 (BioTek®) microplate reader with a filter set of 410/80 nm and 515/30 nm to detect the RlucII (donor) and mVenus (acceptor) light emissions, respectively. The BRET signal was determined by calculating the ratio of the light intensity emitted by the acceptor over the light intensity emitted by the donor. Net BRET was calculated using this ratio and subtracting the same ratio measured from cells expressing only the BRET donor.

β2AR = test: FRET-based cAMP accumulation (ICUE2 HEK293 cells), receptor desensitization; assay type: cell-based; details: ICUE cells pretreated with inhibitor
Description: The Epac2 (ICUE2) sensor contains a CFP and YFP FRET pair. HEK293 cells stably expressing the ICUE2 cells were plated in poly-D-lysine-coated black 96 well plates (Corning) at a cell density of 50,000 cells per well. 16 hours after plating, cells were PBS-washed, then incubated in HEPES-buffered saline solution (150 mM NaCl, 5 mM KCl, 1 mM MgCl2, 2 mM CaCl2, 10 mM glucose, and 10 mM HEPES, pH 7.4) for one hour.

human AT1aR = test: Intracellular calcium measurement, receptor desensitization; assay type: cell-based; details: AngII-induced calcium signal
Description: Intracellular [Ca^2+] release was measured using FLIPR Calcium 6 with the FlexStation 3 microplate reader according to the manufacturer's instructions (Molecular Devices, LLC). Briefly, HEK293 cells stably expressing human AT1aR were seeded in poly-D-lysine-coated black 96-well assay plates (35,000 cells per well) and incubated for 24 hours. On the day of experiment, cell plates were loaded with the appropriate calcium kit reagents and then treated with βarr small molecule modulators or vehicle for 30 min. Basal fluorescence (FO) was measured, agonist was applied while fluorescence (F) intensity was monitored in real time.

βarr2 = βarr2 (Rattus norvegicus, UniProt P29067); test: Binding affinity (Kd) by ITC / thermal shift; design: made in house; details: Cmpd-30 by ITC; other three by combination of ITC and thermal shift; read-out: Kd (dissociation constant), βarr2
Description: A high-throughput differential scanning fluorimetry-based thermal shift screen was developed to identify potential βarr small-molecule modulators present in the collection of structurally diverse, drug-like small-molecule compound library described above. The screen was performed using the StepOnePlus™ Real-Time PCR System (Applied Biosystems, Foster City, Calif.). Melting temperature changes were monitored with the use of a reporter fluorescent probe, SYPRO Orange (Thermo Fisher Scientific). Proteins were buffered in a 20 mM HEPES pH 7.5, 100 mM NaCl solution. All reactions were set up in a 96-well plate at final volumes of 20 μl. Small-molecule test compounds were plated from DMSO stock solutions into 96 well plates (1 compound/well) at a final compound concentration of 100 μM. The final DMSO concentration per well was 1%. βarr1 or βarr2 final concentration was maintained at 5 μM per well. Vehicle (DMSO), negative, and positive controls were also included in each plate. Negative controls contained SYPRO Orange in buffer by itself (no βarr protein). Three known βarr binders were individually tested under described assay conditions: ‘V2Rpp’, a phosphorylated peptide corresponding to the C-terminus of the vasopressin-2 receptor (V2R); Fab30, an antigen-binding fragment that recognizes V2Rpp bound active βarr conformation; and inositol hexakisphosphate (IP6). […]. […] The temperature was raised with a step of 0.5° C. per 30 second from 25° C. to 99° C. and fluorescence readings were taken at each interval. Melting curves were directly exported from the instrument and were analyzed using Applied Biosystems® Protein Thermal Shift™ Software. Melting temperature (Tm) was calculated by plotting the first derivative of the fluorescence emission as a function of temperature [−dF/dT]. […]
ITC measurements were made using the MicroCal iTC200 system (MicroCal, Malvern, Pa.). […] Data were analyzed using MicroCal Origin software program to obtain association constant (Ka=1/Kd), stoichiometry (N), and thermodynamic parameters such as enthalpy (ΔH) and entropy (ΔS) of binding.

Sequence of βarr2 (P29067 whole entry): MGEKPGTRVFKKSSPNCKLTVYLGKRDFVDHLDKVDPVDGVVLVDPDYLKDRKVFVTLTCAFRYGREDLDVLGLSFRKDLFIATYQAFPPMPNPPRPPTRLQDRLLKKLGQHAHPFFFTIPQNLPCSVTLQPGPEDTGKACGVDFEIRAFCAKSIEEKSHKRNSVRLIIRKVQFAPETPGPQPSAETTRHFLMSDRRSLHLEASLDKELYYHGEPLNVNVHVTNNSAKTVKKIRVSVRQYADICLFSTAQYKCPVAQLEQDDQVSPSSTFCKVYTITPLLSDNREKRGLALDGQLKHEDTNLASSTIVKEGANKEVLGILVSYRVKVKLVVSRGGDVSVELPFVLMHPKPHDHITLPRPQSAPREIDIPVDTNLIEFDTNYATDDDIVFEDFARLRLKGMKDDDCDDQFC

Structure (SMILES): C=C1C(=O)OC2CC3(C)OC3CC/C(C)=C\C(OC(C)=O)C12 (stereo not drawn) [Cmpd-64, [(8Z)-3,8-dimethyl-12-methylidene-13-oxo-4,14-dioxatricyclo[9.3.0.03,5]tetradec-8-en-10-yl] acetate]
- internalization of the receptor and association with early endosomes (V2R): inhibit
- isoproterenol-stimulated cAMP accumulation vs untreated control cells (β2AR): increased cAMP accumulation
- desensitization of AT1aR (human AT1aR): inhibited
- Kd (βarr2): 104 nM

Structure (SMILES): CN(C)c1n/c(=N/Cc2ccco2)ss1 [Cmpd-30, 5-(furan-2-ylmethylimino)-N,N-dimethyl-1,2,4-dithiazol-3-amine;hydrobromide]
- internalization of the receptor and association with early endosomes (V2R): inhibit
- isoproterenol-stimulated cAMP accumulation vs untreated control cells (β2AR): increased cAMP accumulation
- desensitization of AT1aR (human AT1aR): inhibited
- Kd (βarr2): 2 nM

Structure (SMILES): C=C1C(=O)C23[C@H](O)C1CC[C@H]2[C@]12COC3(O)[C@@H](O)[C@@H]1C(C)(C)CC[C@@H]2O [Cmpd-5, (1R,2S,10S,11R,15S,18R)-9,10,15,18-tetrahydroxy-12,12-dimethyl-6-methylidene-17-oxapentacyclo[7.6.2.15,8.01,11.02,8]octadecan-7-one]
- internalization of the receptor and association with early endosomes (V2R): inhibit
- isoproterenol-stimulated cAMP accumulation vs untreated control cells (β2AR): increased cAMP accumulation
- desensitization of AT1aR (human AT1aR): inhibited
- Kd (βarr2): 261 nM
